# Data from PubChem BioAssay (NCI).
#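 Values below derive from 48-hour exposures of cells grown in 96-well plates, with endpoints linearly interpolated between the two concentrations bracketing the appropriate inhibition level. At the GI50, growth is halved. TGI is the concentration that stops growth completely.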
# Tests used:
# Experiment in all cases: growth of human tumour cells (NCI), 48 h
# CAKI-1 renal = test system: CAKI-1 renal
# SK-MEL-5 melanoma = test system: SK-MEL-5 melanoma
# A498 renal = test system: A498 renal
# SF-295 CNS = test system: SF-295 CNS
# BT-549 breast = test system: BT-549 breast
# SNB-75 CNS = test system: SNB-75 CNS
# OVCAR-5 ovarian = test system: OVCAR-5 ovarian
# K-562 leukemia = test system: K-562 leukemia
# PC-3 prostate = test system: PC-3 prostate
# MOLT-4 leukemia = test system: MOLT-4 leukemia
# ACHN renal = test system: ACHN renal
# OVCAR-8 ovarian = test system: OVCAR-8 ovarian
# UO-31 renal = test system: UO-31 renal
# T-47D breast = test system: T-47D breast
# MDA-MB-231 breast = test system: MDA-MB-231 breast
# SF-539 CNS = test system: SF-539 CNS
# HOP-92 NSCLC = test system: HOP-92 NSCLC
# EKVX NSCLC = test system: EKVX NSCLC
# DU-145 prostate = test system: DU-145 prostate
# RPMI-8226 leukemia = test system: RPMI-8226 leukemia
# NCI/ADR-RES ovarian = test system: NCI/ADR-RES ovarian
# SR leukemia = test system: SR leukemia
# OVCAR-3 ovarian = test system: OVCAR-3 ovarian
# SK-OV-3 ovarian = test system: SK-OV-3 ovarian
# UACC-62 melanoma = test system: UACC-62 melanoma
# SN12C renal = test system: SN12C renal
# OVCAR-4 ovarian = test system: OVCAR-4 ovarian
# HL-60(TB) leukemia = test system: HL-60(TB) leukemia
# HOP-62 NSCLC = test system: HOP-62 NSCLC
# UACC-257 melanoma = test system: UACC-257 melanoma
# SK-MEL-28 melanoma = test system: SK-MEL-28 melanoma
# TK-10 renal = test system: TK-10 renal
# KM12 colon = test system: KM12 colon
# MALME-3M melanoma = test system: MALME-3M melanoma
# MDA-MB-435 = test system: MDA-MB-435
# MCF7 breast = test system: MCF7 breast
# CCRF-CEM leukemia = test system: CCRF-CEM leukemia
compound,measurement,setting,value
CCN(CC)CCN1C(=O)c2cccc3c(-c4ccc5c(c4)ncn5C4CCCCC4)ccc(c23)C1=O,GI50,CAKI-1 renal,1710 nM
same,TGI,CAKI-1 renal,5.45 µM
same,GI50,SK-MEL-5 melanoma,1320 nM
same,TGI,SK-MEL-5 melanoma,2610 nM
same,GI50,A498 renal,1650 nM
same,TGI,A498 renal,3.22 µM
same,GI50,SF-295 CNS,1180 nM
same,TGI,SF-295 CNS,2690 nM
same,GI50,BT-549 breast,922 nM
same,TGI,BT-549 breast,2300 nM
same,GI50,SNB-75 CNS,1050 nM
same,TGI,SNB-75 CNS,2400 nM
same,GI50,OVCAR-5 ovarian,1720 nM
same,TGI,OVCAR-5 ovarian,4.04 µM
same,GI50,K-562 leukemia,476 nM
same,TGI,K-562 leukemia,3.97 µM
same,GI50,PC-3 prostate,1640 nM
same,TGI,PC-3 prostate,4.66 µM
same,GI50,MOLT-4 leukemia,1100 nM
same,TGI,MOLT-4 leukemia,3.88 µM
same,GI50,ACHN renal,1160 nM
same,TGI,ACHN renal,2960 nM
same,GI50,OVCAR-8 ovarian,1750 nM
same,TGI,OVCAR-8 ovarian,4.62 µM
same,GI50,UO-31 renal,583 nM
same,TGI,UO-31 renal,2280 nM
same,GI50,T-47D breast,1650 nM
same,TGI,T-47D breast,6.22 µM
same,GI50,MDA-MB-231 breast,1630 nM
same,TGI,MDA-MB-231 breast,3.19 µM
same,GI50,SF-539 CNS,1370 nM
same,TGI,SF-539 CNS,2750 nM
same,GI50,HOP-92 NSCLC,372 nM
same,TGI,HOP-92 NSCLC,1650 nM
same,GI50,EKVX NSCLC,1320 nM
same,TGI,EKVX NSCLC,3.18 µM
same,GI50,DU-145 prostate,1590 nM
same,TGI,DU-145 prostate,3.2 µM
same,GI50,RPMI-8226 leukemia,1170 nM
same,TGI,RPMI-8226 leukemia,3.53 µM
same,GI50,NCI/ADR-RES ovarian,1450 nM
same,TGI,NCI/ADR-RES ovarian,4.26 µM
same,GI50,SR leukemia,414 nM
same,TGI,SR leukemia,2060 nM
same,GI50,OVCAR-3 ovarian,1730 nM
same,TGI,OVCAR-3 ovarian,3.64 µM
same,GI50,SK-OV-3 ovarian,1970 nM
same,TGI,SK-OV-3 ovarian,4.18 µM
same,GI50,UACC-62 melanoma,1560 nM
same,TGI,UACC-62 melanoma,3.03 µM
same,GI50,SN12C renal,1270 nM
same,TGI,SN12C renal,2780 nM
same,GI50,OVCAR-4 ovarian,1070 nM
same,TGI,OVCAR-4 ovarian,4.56 µM
same,GI50,HL-60(TB) leukemia,1950 nM
same,TGI,HL-60(TB) leukemia,4.61 µM
same,GI50,HOP-62 NSCLC,1460 nM
same,TGI,HOP-62 NSCLC,3.05 µM
same,GI50,UACC-257 melanoma,2230 nM
same,TGI,UACC-257 melanoma,3.74 µM
same,GI50,SK-MEL-28 melanoma,1630 nM
same,TGI,SK-MEL-28 melanoma,3.1 µM
same,GI50,TK-10 renal,1760 nM
same,TGI,TK-10 renal,4.39 µM
same,GI50,KM12 colon,1520 nM
same,TGI,KM12 colon,3.2 µM
same,GI50,MALME-3M melanoma,1380 nM
same,TGI,MALME-3M melanoma,2810 nM
same,GI50,MDA-MB-435,1680 nM
same,TGI,MDA-MB-435,3.22 µM
same,GI50,MCF7 breast,1740 nM
same,TGI,MCF7 breast,4.65 µM
same,GI50,CCRF-CEM leukemia,1430 nM
same,TGI,CCRF-CEM leukemia,11.6 µM
